These results are taken from ChEMBL document CHEMBL4342421, “Current scenario of tetrazole hybrids for antibacterial activity” (Eur J Med Chem, 2019).

Values after ≈ are worked out from the molar mass of the structure shown.

The MIC is the least concentration at which growth counts as inhibited. Read a high MIC as a less susceptible organism.

For one assay, the system named is Bacillus cereus. Nature of the assay: Antimicrobial activity against Bacillus cereus assessed as zone of inhibition at 0.001 mol/cm3. The class given is functional.
Assay [1] deals with Escherichia coli. Kind of assay: Antimicrobial activity against Escherichia coli assessed as zone of inhibition at 0.001 mol/cm3. The class given is functional.
In assay [2] the test system is Staphylococcus aureus. Kind of assay: Antimicrobial activity against Staphylococcus aureus assessed as zone of inhibition at 0.001 mol/cm3. It is filed as functional.
Assay [3] concerns Bacillus subtilis. Kind of assay: Antimicrobial activity against Bacillus subtilis assessed as zone of inhibition at 5 mg/ml after 24 to 48 hrs by well diffusion method. The class given is functional. To be noted: read-out: IZ.
In assay [4] the test system is Staphylococcus aureus. Nature of the assay: Antimicrobial activity against Staphylococcus aureus assessed as zone of inhibition at 5 mg/ml after 24 to 48 hrs by well diffusion method. It is filed as functional. As to conditions: read-out: IZ.
The test system of assay [5] is Pseudomonas aeruginosa. Kind of assay: Antimicrobial activity against Pseudomonas aeruginosa assessed as zone of inhibition at 5 mg/ml after 24 to 48 hrs by well diffusion method. The class given is functional. To be noted: read-out: IZ. Background: A growth-free zone around the sample is the usual read-out of agar diffusion tests.
Assay [6] has as its system Escherichia coli. Kind of assay: Antimicrobial activity against Escherichia coli assessed as zone of inhibition at 5 mg/ml after 24 to 48 hrs by well diffusion method. It is filed as functional. To be noted: read-out: IZ.
For assay [7], the system named is Klebsiella pneumoniae. Kind of assay: Antimicrobial activity against Klebsiella pneumoniae assessed as zone of inhibition at 5 mg/ml. It is filed as functional. As to conditions: read-out: IZ.
Assay [8] deals with Pseudomonas aeruginosa. Kind of assay: Antimicrobial activity against Pseudomonas aeruginosa assessed as zone of inhibition at 5 mg/ml. The class given is functional. As to conditions: read-out: IZ.
The test system of assay [9] is Escherichia coli. Kind of assay: Antimicrobial activity against Escherichia coli assessed as zone of inhibition at 5 mg/ml. It is filed as functional. To be noted: read-out: IZ.
Assay [10] relates to Staphylococcus aureus. Kind of assay: Antimicrobial activity against Staphylococcus aureus assessed as zone of inhibition at 5 mg/ml. The class given is functional. To be noted: read-out: IZ.
The next assay has as its system Pichia kudriavzevii. Kind of assay: Antifungal activity against Candida krusei.
A further assay concerns Candida tropicalis. Nature of the assay: Antifungal activity against Candida tropicalis. It is filed as functional.
For assay [11], the system named is Pseudomonas aeruginosa. Kind of assay: Antimicrobial activity against Pseudomonas aeruginosa. It is filed as functional.
For assay [12], the system named is Bacillus subtilis. Nature of the assay: Antimicrobial activity against Bacillus subtilis. It is filed as functional.
In assay [13] the test system is Escherichia coli. Kind of assay: Antimicrobial activity against Escherichia coli. It is filed as functional.
The test system of another assay is Nakaseomyces glabratus. Kind of assay: Antifungal activity against Candida glabrata. It is filed as functional.
The test system of assay [14] is Staphylococcus aureus. Nature of the assay: Antimicrobial activity against Staphylococcus aureus. It is filed as functional.
For a further assay, the system named is Candida albicans. Kind of assay: Antifungal activity against Candida albicans. The class given is functional.
The subject of assay [15] is Pseudomonas aeruginosa. Nature of the assay: Antimicrobial activity against Pseudomonas aeruginosa after 24 hrs by agar disk diffusion method. It is filed as functional.
In assay [16] the test system is Klebsiella pneumoniae. Nature of the assay: Antimicrobial activity against Klebsiella pneumoniae after 24 hrs by agar disk diffusion method. It is filed as functional.
Assay [17] has as its system Escherichia coli. Kind of assay: Antimicrobial activity against Escherichia coli after 24 hrs by agar disk diffusion method. The class given is functional.
Assay [18] relates to Pseudomonas aeruginosa. Kind of assay: Antimicrobial activity against Pseudomonas aeruginosa ATCC 27853 after 24 hrs by disc diffusion method. The class given is functional. As to conditions: ATCC 27853, 24 h.
A further assay deals with Talaromyces marneffei. Nature of the assay: Antifungal activity against Penicillium marneffei after 3 to 4 days. The class given is functional.
In assay [19] the test system is Staphylococcus aureus. Kind of assay: Antimicrobial activity against Staphylococcus aureus ATCC 25923 after 24 hrs by disc diffusion method. It is filed as functional. To be noted: ATCC 25923, 24 h.
Assay [20] has as its system Trichophyton mentagrophytes. Kind of assay: Antifungal activity against Trichophyton mentagrophytes after 3 to 4 days. It is filed as functional.
In assay [21] the test system is Klebsiella pneumoniae. Nature of the assay: Antimicrobial activity against Klebsiella pneumoniae after 24 hrs by disc diffusion method. It is filed as functional.
The subject of another assay is Aspergillus fumigatus. Kind of assay: Antifungal activity against Aspergillus fumigatus NCIM 902 after 3 to 4 days. The class given is functional.
A further assay has as its system Proteus mirabilis. Kind of assay: Antimicrobial activity against Proteus mirabilis after 24 hrs by agar disk diffusion method. It is filed as functional.
A further assay relates to Aspergillus flavus. Kind of assay: Antifungal activity against Aspergillus flavus NCIM 524 after 3 to 4 days. The class given is functional.
In assay [22] the test system is Escherichia coli. Kind of assay: Antimicrobial activity against Escherichia coli ATCC 25922 after 24 hrs by disc diffusion method. The class given is functional. As to conditions: ATCC 25922, 24 h.

For the compound `CCOC(=O)c1c(-n2cnnn2)sc(C(=O)c2ccccc2)c1C`, the “inhibition zone (IZ)” value with Bacillus cereus, with Escherichia coli [1] and with Staphylococcus aureus [2] was 22 - 24 mm throughout.
On to `C[C@H]1COc2c(N3CCN(C)CC3)c(F)cc3c(=O)c(C(=O)O)cn1c23.C[C@H]1COc2c(N3CCN(C)CC3)c(F)cc3c(=O)c(C(=O)O)cn1c23.O` [LEVOFLOXACIN], for which the “inhibition zone (IZ)” value in the assay on Bacillus cereus, in the assay on Escherichia coli [1] and in the assay on Staphylococcus aureus [2] was 28 - 30 mm each time.
Regarding `Cc1c(-c2cc(-c3ccccc3)nc3nnnn23)cnn1-c1ccccc1`, the zone of inhibition at 5000 µg/mL in the assay with Bacillus subtilis [3], with Staphylococcus aureus [4], in the assay on Pseudomonas aeruginosa [5] and in the assay with Escherichia coli [6] was 13.7 to 18.6 mm throughout.
In the case of `Cc1c(-c2cc(-c3ccc(-c4cc(-c5cnn(-c6ccccc6)c5C)n5nnnc5n4)cc3)nc3nnnn23)cnn1-c1ccccc1`, the zone of inhibition at 5000 µg/mL in the assay on Bacillus subtilis [3], with Staphylococcus aureus [4], with Pseudomonas aeruginosa [5] and with Escherichia coli [6] was 8.1 to 9.9 mm in each case.
Consider `Cc1nc2ccccc2cc1Cn1cc(CSc2nnnn2-c2ccccc2)nn1`, for which the zone of inhibition at 5000 µg/mL in the assay with Klebsiella pneumoniae [7], in the assay on Pseudomonas aeruginosa [8], in the assay on Escherichia coli [9] and with Staphylococcus aureus [10] was 11 to 19 mm each time.
Regarding `Cc1ccc2nc(C)c(Cn3cc(CSc4nnnn4-c4ccccc4)nn3)cc2c1`, the zone of inhibition at 5000 µg/mL in the assay on Klebsiella pneumoniae [7], with Pseudomonas aeruginosa [8], with Escherichia coli [9] and with Staphylococcus aureus [10] was 11 to 19 mm each time.
Take `Fc1cc2nc(SCc3ccc(-c4ccccc4-c4nnnn4C(c4ccccc4)(c4ccccc4)c4ccccc4)cc3)[nH]c2cc1-n1ccnc1`: the MIC in the assay on Pichia kudriavzevii, in the assay with Candida tropicalis, against Pseudomonas aeruginosa [11], against Bacillus subtilis [12], against Escherichia coli [13] and in the assay with Nakaseomyces glabratus was 16 to 64 mg/L (≈ 22.5 to 90 µM) each time. In addition, the MIC in the assay with Staphylococcus aureus [14] and in the assay with Candida albicans was 16 to 64 mg/L (≈ 22.5 to 90 µM) each time.
As for `c1ccc(Cn2nnnc2SCCCSc2nnnn2-c2ccccc2)cc1`, the MIC was 6.25 mg/L (≈ 15.2 µM) in the assay with Pseudomonas aeruginosa [15]; 6.25 mg/L (≈ 15.2 µM) with Klebsiella pneumoniae [16]; 6.25 mg/L (≈ 15.2 µM) in the assay with Escherichia coli [17]; 6.25 to 50 mg/L (≈ 15.2 to 122 µM) with Pseudomonas aeruginosa [18]; 6.25 to 50 mg/L (≈ 15.2 to 122 µM) in the assay with Talaromyces marneffei; 6.25 to 50 mg/L (≈ 15.2 to 122 µM) in the assay with Staphylococcus aureus [19]. For the same compound, the MIC in assay [20] was 6.25 to 50 mg/L (≈ 15.2 to 122 µM); against Klebsiella pneumoniae [21], 6.25 to 50 mg/L (≈ 15.2 to 122 µM); against Aspergillus fumigatus it was 6.25 to 50 mg/L (≈ 15.2 to 122 µM); against Proteus mirabilis, 6.25 mg/L (≈ 15.2 µM); against Aspergillus flavus it was 6.25 to 50 mg/L (≈ 15.2 to 122 µM); against Escherichia coli [22], 6.25 to 50 mg/L (≈ 15.2 to 122 µM).
`Fc1cc2[nH]c(SCc3ccc(-c4ccccc4-c4nnnn4C(c4ccccc4)(c4ccccc4)c4ccccc4)cc3)nc2cc1-n1cncn1`: the MIC against Pichia kudriavzevii, in the assay on Candida tropicalis, against Pseudomonas aeruginosa [11], in the assay on Bacillus subtilis [12], against Escherichia coli [13] and with Nakaseomyces glabratus was 16 to 64 mg/L (≈ 22.5 to 89.9 µM) in each case. Further, the MIC with Staphylococcus aureus [14] and with Candida albicans was 16 to 64 mg/L (≈ 22.5 to 89.9 µM) each time.
